Assay results as given in ChEMBL document CHEMBL3886225, “Morpholinylquinazolines” (2015).

Molecular target: DNA-dependent protein kinase catalytic subunit (Homo sapiens, UniProt P78527)
Test: Biochemical Assay: The kinase assay was carried out in streptavidin-coated […] microtitre FlashPlates®. To this end, 1.5 μg of the DNA-PK/protein complex and 100 ng of biotinylated substrate, such as, for example, PESQEAFADLWKK biotin-NH2 (biotin-DNA-PK peptide), in a total volume of 36.5 μl (34.25 mM HEPES/KOH, 7.85 mM Tris-HCl, 68.5 mM KCl, 5 μM ATP, 6.85 mM MgCl2, 0.5 mM EDTA, 0.14 mM EGTA, 0.69 mM DTT, pH 7.4), were incubated at room temperature for 90 min with 500 ng of DNA from calf thymus, 0.1 μCi of 33P-ATP and 1.8% of DMSO per well with or without the test compound. The reaction was stopped using 50 μl/well of 200 mM EDTA. After incubation for a further 30 min at room temperature, the liquid was removed. Each well was washed three times with 100 μl of 0.9% sodium chloride solution. A non-specific reaction (blank value) was determined using 10 μM of a proprietary kinase inhibitor.

Sequence of DNA-dependent protein kinase catalytic subunit (P78527 whole entry): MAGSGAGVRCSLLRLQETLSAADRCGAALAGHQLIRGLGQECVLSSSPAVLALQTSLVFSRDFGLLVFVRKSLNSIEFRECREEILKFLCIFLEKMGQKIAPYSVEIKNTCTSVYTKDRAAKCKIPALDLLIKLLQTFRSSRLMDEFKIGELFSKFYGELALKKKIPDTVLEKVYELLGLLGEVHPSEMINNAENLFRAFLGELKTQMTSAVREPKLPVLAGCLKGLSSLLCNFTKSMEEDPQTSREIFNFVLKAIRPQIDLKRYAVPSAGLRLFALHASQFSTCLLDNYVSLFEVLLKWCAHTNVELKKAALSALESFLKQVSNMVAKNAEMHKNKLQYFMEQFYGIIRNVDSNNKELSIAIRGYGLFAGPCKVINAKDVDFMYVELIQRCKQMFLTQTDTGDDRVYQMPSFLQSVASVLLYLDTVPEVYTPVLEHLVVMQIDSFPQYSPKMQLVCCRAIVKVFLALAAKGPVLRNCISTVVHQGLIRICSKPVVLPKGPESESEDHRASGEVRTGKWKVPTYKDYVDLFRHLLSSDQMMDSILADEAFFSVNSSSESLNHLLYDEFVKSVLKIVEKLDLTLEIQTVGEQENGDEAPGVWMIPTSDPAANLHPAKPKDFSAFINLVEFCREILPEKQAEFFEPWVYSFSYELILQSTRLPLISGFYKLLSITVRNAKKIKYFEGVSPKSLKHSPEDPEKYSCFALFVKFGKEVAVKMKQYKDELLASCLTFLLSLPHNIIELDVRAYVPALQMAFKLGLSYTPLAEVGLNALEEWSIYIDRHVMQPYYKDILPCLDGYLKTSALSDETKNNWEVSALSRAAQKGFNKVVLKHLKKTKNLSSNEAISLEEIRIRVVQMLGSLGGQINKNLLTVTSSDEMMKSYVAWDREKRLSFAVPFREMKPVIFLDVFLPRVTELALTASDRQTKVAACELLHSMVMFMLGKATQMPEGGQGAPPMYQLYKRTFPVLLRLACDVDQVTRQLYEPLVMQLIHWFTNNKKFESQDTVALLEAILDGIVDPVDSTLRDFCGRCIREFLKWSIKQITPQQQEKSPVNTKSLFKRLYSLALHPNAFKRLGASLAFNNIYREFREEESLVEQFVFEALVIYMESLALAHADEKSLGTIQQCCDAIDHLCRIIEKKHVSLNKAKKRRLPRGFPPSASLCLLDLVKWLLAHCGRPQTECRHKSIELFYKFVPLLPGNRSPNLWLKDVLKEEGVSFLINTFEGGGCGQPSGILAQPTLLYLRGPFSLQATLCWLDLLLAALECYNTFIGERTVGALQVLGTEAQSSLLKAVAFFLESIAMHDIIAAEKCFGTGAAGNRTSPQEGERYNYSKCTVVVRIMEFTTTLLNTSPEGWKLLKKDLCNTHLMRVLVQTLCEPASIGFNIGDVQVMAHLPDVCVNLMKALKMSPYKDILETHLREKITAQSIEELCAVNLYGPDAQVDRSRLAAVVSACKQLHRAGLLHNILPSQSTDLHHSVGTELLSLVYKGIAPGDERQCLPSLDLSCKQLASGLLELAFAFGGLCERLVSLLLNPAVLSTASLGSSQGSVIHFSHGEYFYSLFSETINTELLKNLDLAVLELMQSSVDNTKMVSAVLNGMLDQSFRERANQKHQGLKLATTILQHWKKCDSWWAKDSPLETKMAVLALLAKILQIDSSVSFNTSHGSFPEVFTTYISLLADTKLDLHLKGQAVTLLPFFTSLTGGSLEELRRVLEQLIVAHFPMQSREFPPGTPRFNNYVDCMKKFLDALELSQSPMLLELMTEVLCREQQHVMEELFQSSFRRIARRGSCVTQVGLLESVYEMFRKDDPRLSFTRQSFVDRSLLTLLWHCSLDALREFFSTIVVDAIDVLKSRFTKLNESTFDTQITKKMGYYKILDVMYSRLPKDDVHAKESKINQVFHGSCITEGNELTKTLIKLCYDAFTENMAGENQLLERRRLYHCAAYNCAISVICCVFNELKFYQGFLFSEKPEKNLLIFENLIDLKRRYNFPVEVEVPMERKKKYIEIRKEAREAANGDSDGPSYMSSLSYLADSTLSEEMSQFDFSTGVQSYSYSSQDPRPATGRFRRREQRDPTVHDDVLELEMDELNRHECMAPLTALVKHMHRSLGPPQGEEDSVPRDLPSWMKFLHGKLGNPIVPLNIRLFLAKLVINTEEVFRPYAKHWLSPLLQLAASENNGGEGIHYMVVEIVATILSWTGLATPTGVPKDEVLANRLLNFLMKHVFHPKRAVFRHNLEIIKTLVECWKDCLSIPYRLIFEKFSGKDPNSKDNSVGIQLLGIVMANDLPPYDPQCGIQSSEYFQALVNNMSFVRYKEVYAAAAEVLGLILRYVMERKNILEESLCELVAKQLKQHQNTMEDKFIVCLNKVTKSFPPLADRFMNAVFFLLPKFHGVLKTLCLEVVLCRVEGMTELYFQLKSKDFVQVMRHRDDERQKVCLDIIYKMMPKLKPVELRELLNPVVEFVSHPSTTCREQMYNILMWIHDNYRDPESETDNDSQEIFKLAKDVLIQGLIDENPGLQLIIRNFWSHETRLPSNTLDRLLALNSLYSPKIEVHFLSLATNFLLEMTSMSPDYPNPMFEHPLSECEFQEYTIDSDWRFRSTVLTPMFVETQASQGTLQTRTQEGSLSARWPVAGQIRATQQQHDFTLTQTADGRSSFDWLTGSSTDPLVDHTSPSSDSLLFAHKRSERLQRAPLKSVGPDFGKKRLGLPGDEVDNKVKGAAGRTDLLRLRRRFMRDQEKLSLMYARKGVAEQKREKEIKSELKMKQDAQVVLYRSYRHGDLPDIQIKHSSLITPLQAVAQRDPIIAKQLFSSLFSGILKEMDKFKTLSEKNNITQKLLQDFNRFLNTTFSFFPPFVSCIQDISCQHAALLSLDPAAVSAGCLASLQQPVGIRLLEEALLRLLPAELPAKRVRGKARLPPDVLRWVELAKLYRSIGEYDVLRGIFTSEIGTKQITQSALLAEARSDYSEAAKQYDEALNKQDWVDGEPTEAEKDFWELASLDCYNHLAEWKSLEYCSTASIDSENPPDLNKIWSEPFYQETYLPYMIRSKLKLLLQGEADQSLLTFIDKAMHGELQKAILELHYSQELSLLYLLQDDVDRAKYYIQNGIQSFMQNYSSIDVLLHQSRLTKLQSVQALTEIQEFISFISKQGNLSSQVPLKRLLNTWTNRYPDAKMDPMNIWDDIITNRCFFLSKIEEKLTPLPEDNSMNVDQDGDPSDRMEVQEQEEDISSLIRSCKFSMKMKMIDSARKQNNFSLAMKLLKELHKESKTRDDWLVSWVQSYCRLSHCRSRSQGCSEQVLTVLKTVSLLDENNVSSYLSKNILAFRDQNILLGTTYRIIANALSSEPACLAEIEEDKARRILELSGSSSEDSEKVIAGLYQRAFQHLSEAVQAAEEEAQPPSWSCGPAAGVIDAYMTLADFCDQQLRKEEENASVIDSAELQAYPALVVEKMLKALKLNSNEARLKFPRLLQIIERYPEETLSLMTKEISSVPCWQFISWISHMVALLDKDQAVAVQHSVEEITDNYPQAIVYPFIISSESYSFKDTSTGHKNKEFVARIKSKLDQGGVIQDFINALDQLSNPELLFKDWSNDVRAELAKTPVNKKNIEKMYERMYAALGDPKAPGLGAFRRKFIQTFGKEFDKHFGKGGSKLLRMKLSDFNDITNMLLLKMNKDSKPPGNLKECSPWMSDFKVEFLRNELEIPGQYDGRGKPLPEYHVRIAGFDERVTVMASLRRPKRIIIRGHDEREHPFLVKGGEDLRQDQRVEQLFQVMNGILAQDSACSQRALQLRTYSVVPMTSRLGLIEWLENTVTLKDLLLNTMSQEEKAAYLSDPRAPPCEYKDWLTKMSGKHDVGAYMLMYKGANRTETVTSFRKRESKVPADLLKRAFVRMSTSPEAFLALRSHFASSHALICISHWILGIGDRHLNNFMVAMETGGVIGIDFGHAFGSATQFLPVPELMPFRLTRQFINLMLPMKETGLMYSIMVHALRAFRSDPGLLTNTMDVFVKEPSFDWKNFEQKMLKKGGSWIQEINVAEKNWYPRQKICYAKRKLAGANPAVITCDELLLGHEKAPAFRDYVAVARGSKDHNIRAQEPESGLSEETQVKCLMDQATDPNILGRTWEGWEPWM

## O=S(=O)(NC1CCCN(c2nc(Cl)nc3cc(N4CCOCC4)ccc23)C1)c1cccs1 (stereo unspecified)
  IC50: < 100 nM
